# Assays:
# ANT [1] = target: T1, ANT (Rattus norvegicus, UniProt Q05962); format: binding; details: purified detergent-solubilized ANT
# T1 construct: from tissue
# From the text: A Plasma surface resonance sensorgrams of the interaction of ANT with Vpr52-96, Vpr52-96[R73A, 80A] or an irrelevant control (Co).
# B. Langmuir isotherm determined at different concentrations of ANT on sensorgrams corrected by substraction of the blank (sensorgrams obtained with Vpr52-96[R73A, 80A]).
# ANT [2] = target: T1, ANT; test: Single channel recordings in planar lipid bilayers; format: biochemical
# Method: FIG. 3 presents electrophysiological properties of Vpr52-96 and ANT in planar lipid bilayers. Current fluctuations of Vpr52-96 (80 nM, +150 mV), Vpr52-96(0.4 nM, +100 mV), ANT (1 nM, +110 mV) and Vpr52-96+ANT (0.4:1 nM, +115 mV) and associated histograms (right) of conductance levels are shown.
# Current fluctuations of Vpr52-96 (80 nM, +150 mV), Vpr52-96 (0.4 nM, +100 mV), ANT (1 nM, +110 mV) and Vpr52-96+ANT (0.4:1 nM, 115 mV) after incorporation into synthetic membranes. Single channel recordings were performed using the “Tip-Dip” technique. The recordings shown are representative for at least three independent determinations.
# B. Statistical analysis of conductances obtained in A. Results were expressed as current distributions at different voltages. Conductances (γ; in picosiemens, pS) are calculated by division of current by voltage.
# isolated mitochondria = test: Electron microscopy of isolated mitochondria (matrix swelling); format: biochemical; details: 3 μM Vpr52-96, 5 or 15 min
# From the text: C. Ultrastructural effects of Vpr on isolated mitochondria.
# ANT [3] = target: T1, ANT; details: surface plasmon resonance, Jacotot et al. 2000; cited from earlier work
# purified mitochondria [4] = test: Respirometry of purified mitochondria, respiratory control; format: biochemical; details: 1 μM peptide, 10 min
# Method: A. Oxygen consumption curves after addition of the indicated agents. Trace a: control mitochondria (no pretreatment). Trace b: mitochondria pretreated for 10 min with 1 μM Vpr52-96. Numbers along the traces are nmol of O2 consumed min^−1 mg^31 1 protein.
# B. Respiratory control (RC) values calculated by dividing oxygen consumption in the presence of CCCP by that measured with oligomycin (determined as in A), 10 min after addition of 1 μM of Vpr-derived peptides (mean values of 3 determinations).
# purified mitochondria [5] = test: Inner versus outer mitochondrial membrane permeabilization (NADH oxidation, cytochrome c oxidation); format: biochemical
# Method: A. Respirometry performed after addition of NADH and Vpr52-96 (1 μM). Numbers along the traces are nmol of O2 consumed min^−1 mg^−1 protein.
# B. Kinetics of Vpr52-96 induced inner membrane permeabilization to NADH and outer membrane permeabilization to reduced cytochrome c. Oxygen consumption was determined in the presence of 2 mM NADH (full squares) as in A (traces C-D) and cytochrome c (15 μM) oxidation (open circles) was spectrofluorometrically measured, as described Rustin et al., 1994). The 100% value of cytochrome c oxidation was determined by addition of 2.5 mM laurylmaltoside.
# Oxygen consumption of purified mitochondria was measured as in FIG. 5 after addition of succinate+CCCP or NADH, as indicated.
# purified mitochondria [6] = test: FITC-Vpr52-96 binding to purified mitochondria; details: 0.5 μM FITC-Vpr52-96
# Method: Mitochondria were left unstained (insert in Co.) or exposed to the ΔΨm-insensitive mitochondrial dye MitoTracker® Green (75 nM), alone (MTG) or with 0.5 μM of FITC-Vpr52-96; green fluorescence), in combination with the ΔΨm-sensitive mitochondrial dye MitoTracker® Red (CMXRos; red Fluorescence) followed by cytofluorometric two-color analysis. Numbers indicate the percentage of mitochondria in each quadrant.
# Mitochondria were incubated with the indicated inhibitors, and then exposed for 30 min at RT with 5 μM biotinylated Vpr52-96. Mitochondria were lysed either after incubation with biotinylated Vpr52-96 (upper panel) or lysed before (lower panel) with Tris/HCl as described in materials and methods. Biotinylated Vpr52-96 complexed with its mitochondrial ligands was retained on avidin-agarose and subjected to immunoblot detection of ANT.
# ANT-proteoliposomes = target: T2, ANT-proteoliposomes (Rattus norvegicus, UniProt Q05962); test: FITC-labeled Vpr52-96 binding onto ANT-liposomes and plain liposomes
# T2 construct: ANT is purified from rat heart and reconstituted in liposomes; from tissue; host or cells: rat heart (ANT)
# T2 sequence (Q05962 1-298): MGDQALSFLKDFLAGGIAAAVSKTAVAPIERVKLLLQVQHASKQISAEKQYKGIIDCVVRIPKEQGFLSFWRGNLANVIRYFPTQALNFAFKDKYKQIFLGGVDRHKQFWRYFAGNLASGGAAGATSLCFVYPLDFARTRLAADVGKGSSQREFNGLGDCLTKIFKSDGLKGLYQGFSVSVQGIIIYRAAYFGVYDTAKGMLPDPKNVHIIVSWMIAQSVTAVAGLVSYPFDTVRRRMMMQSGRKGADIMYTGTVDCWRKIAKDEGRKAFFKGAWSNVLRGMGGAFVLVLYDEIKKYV
# Method: A. Dose-response curve of FITC-labeled Vpr52-96 binding onto ANT-liposomes and plain liposomes.
# B. Binding of FITC-Vpr52-96 (2 μM) to plain liposomes, ANT-proteoliposomes, in the presence or absence of BA (50 μM).
smiles,measurement,setting,value
CC[C@H](C)[C@H](NC(=O)[C@H](C)NC(=O)[C@H](CCC(=O)O)NC(=O)[C@@H](NC(=O)CNC(=O)[C@H](C)NC(=O)[C@H](Cc1c[nH]c2ccccc12)NC(=O)[C@@H](NC(=O)[C@@H](N)CC(=O)O)[C@@H](C)O)C(C)C)C(=O)N[C@H](C(=O)N[C@@H](CCCNC(=N)N)C(=O)N[C@H](C(=O)N[C@@H](CC(C)C)C(=O)N[C@@H](CCC(N)=O)C(=O)N[C@@H](CCC(N)=O)C(=O)N[C@@H](CC(C)C)C(=O)N[C@@H](CC(C)C)C(=O)N[C@@H](Cc1ccccc1)C(=O)N[C@H](C(=O)N[C@@H](Cc1c[nH]cn1)C(=O)N[C@@H](Cc1ccccc1)C(=O)N[C@@H](CCCNC(=N)N)C(=O)N[C@H](C(=O)NCC(=O)N[C@@H](CS)C(=O)N[C@@H](CCCNC(=N)N)C(=O)N[C@@H](Cc1c[nH]cn1)C(=O)N[C@@H](CO)C(=O)N[C@@H](CCCNC(=N)N)C(=O)N[C@H](C(=O)NCC(=O)N[C@H](C(=O)N[C@H](C(=O)N[C@@H](CCCNC(=N)N)C(=O)N[C@@H](CCC(N)=O)C(=O)N[C@@H](CCCNC(=N)N)C(=O)N[C@@H](CCCNC(=N)N)C(=O)N[C@@H](C)C(=O)N[C@@H](CCCNC(=N)N)C(=O)N[C@@H](CC(N)=O)C(=O)NCC(=O)N[C@@H](C)C(=O)N[C@@H](CO)C(=O)N[C@@H](CCCNC(=N)N)C(=O)N[C@@H](CO)C(=O)O)[C@@H](C)O)C(C)C)[C@@H](C)CC)[C@@H](C)CC)[C@@H](C)CC)[C@@H](C)CC)[C@@H](C)CC [Vpr52-96],binding of ANT to immobilized peptide (sensorgram),ANT [1],exhibits an increase of binding as a function of time and a positive signal at the start of the dissociation phase
same,conductance of channels formed by ANT and Vpr52-96,ANT [2]; Vpr52-96+ANT 0.4:1 nM,190±2 pS
same,mean conductance of Vpr52-96-ANT channels without any further addition,ANT [2]; as restated in Example 4,190±2
same,conductance of channels formed by Vpr52-96 alone,"ANT [2]; high doses (80 nM), no ANT",55±2 pS
same,channel formation in planar lipid bilayers,ANT [2]; low doses (<1 nM),"incapable of forming channels, unless ANT was present"
same,ultrastructural effect on mitochondria,isolated mitochondria,exhibited matrix swelling before OM rupture became apparent
same,affinity of Vpr C-terminus for purified ANT,ANT [3],high affinity in the nanomolar range
same,effect on respiratory control (RC),purified mitochondria [4],exhibited a gross deficiency in respiratory control (RC)
same,respiratory control (RC) value,purified mitochondria [4]; 5.3 in control mitochondria,1.1
same,order of inner and outer MMP,purified mitochondria [5],causes inner MMP well before OM becomes permeable to exogenous cytochrome c
same,time to maximal NADH oxidation,"purified mitochondria [5]; Vpr52-96 1 μM, 2 mM NADH",10 min
same,Vpr52-96 binding to mitochondria relative to ΔΨm loss,purified mitochondria [6],binds mitochondria before inducing ΔΨm loss
same,"Vpr52-96 binding to membranes, ANT liposomes versus protein-free liposomes",ANT-proteoliposomes,greatly facilitated in liposomes in which ANT has been reconstituted as compared to protein-free liposomes
